Test results taken from patent US11166924B2, “N-methyl-d-aspartate receptor allosteric modulators and methods for their use” (Qingdao Primedicine Pharmaceutical Company, Ltd., priority 2016, dated 2021).

Legend:
[1] = target: T1, GluN2B NMDARs in hippocampal slices (Mus musculus, UniProt P35438+Q01097); experiment: Slice recordings, GluN2B component of synaptic NMDAR currents; conditions: FIG. 18
T1 construct: from tissue; host or cells: mouse hippocampal slices, CA1 pyramidal neurons
From the text: 6-8 week old C57/Bl6 mice or rats underwent cervical dislocation followed by decapitation. The brain was immediately transferred to an ice cold NMDG-based cutting solution consisting of: (in mM): 120 NMDG, 2.5 KCl, 1.2 NaH2PO4, 25 NaHCO3, 1.0 CaCl2, 7.0 MgCl2, 2.4 Na-pyruvate, 1.3 Na-ascorbate, 20 D-glucose with pH adjusted to 7.35 using HCl acid (unless stated, all chemicals and drugs were purchased from Sigma or BioShop, Canada). The hippocampus was dissected out and transverse hippocampal slices (400 μm) were obtained using a manual tissue chopper (Stoelting, Wood Dale, Ill., USA). Slices recovered in a heated (30° C.) incubating chamber for 1 hr which contained ACSF composed of (in mM): 124 NaCl, 3 KCl, 1.25 NaH2PO4, 1 MgSO47H2O, 2 CaCl2), 26 NaHCO3 and 15 D-glucose which was bubbled continuously with carbogen (95% O2/5% CO2) (pH to 7.3). After 30 additional minutes at room temperature, slices were transferred to a submerged recording chamber and were perfused continuously with carbogenated ACSF (2-3 ml/min). Whole-cell recordings of CA1 pyramidal neurons were performed using the “blind” method with a MultiClamp 700B amplifier. EPSCs (excitatory post synaptic currents) were elicited by stimulating the SC pathway. For isolation of NMDAR currents, cells were voltage clamped at +40 mV. […]

[2] = target: T2, GluN1/GluN2A^P79A (Rattus norvegicus, UniProt P35439+Q00959, P79A); experiment: Patch clamp in HEK293 cells expressing mutant GluN1/GluN2A P79A; type: cell-based
T2 construct: expressed in transfected cells; host or cells: HEK293
T2 sequence (Q00959 23-1464 P79A, other chains not shown): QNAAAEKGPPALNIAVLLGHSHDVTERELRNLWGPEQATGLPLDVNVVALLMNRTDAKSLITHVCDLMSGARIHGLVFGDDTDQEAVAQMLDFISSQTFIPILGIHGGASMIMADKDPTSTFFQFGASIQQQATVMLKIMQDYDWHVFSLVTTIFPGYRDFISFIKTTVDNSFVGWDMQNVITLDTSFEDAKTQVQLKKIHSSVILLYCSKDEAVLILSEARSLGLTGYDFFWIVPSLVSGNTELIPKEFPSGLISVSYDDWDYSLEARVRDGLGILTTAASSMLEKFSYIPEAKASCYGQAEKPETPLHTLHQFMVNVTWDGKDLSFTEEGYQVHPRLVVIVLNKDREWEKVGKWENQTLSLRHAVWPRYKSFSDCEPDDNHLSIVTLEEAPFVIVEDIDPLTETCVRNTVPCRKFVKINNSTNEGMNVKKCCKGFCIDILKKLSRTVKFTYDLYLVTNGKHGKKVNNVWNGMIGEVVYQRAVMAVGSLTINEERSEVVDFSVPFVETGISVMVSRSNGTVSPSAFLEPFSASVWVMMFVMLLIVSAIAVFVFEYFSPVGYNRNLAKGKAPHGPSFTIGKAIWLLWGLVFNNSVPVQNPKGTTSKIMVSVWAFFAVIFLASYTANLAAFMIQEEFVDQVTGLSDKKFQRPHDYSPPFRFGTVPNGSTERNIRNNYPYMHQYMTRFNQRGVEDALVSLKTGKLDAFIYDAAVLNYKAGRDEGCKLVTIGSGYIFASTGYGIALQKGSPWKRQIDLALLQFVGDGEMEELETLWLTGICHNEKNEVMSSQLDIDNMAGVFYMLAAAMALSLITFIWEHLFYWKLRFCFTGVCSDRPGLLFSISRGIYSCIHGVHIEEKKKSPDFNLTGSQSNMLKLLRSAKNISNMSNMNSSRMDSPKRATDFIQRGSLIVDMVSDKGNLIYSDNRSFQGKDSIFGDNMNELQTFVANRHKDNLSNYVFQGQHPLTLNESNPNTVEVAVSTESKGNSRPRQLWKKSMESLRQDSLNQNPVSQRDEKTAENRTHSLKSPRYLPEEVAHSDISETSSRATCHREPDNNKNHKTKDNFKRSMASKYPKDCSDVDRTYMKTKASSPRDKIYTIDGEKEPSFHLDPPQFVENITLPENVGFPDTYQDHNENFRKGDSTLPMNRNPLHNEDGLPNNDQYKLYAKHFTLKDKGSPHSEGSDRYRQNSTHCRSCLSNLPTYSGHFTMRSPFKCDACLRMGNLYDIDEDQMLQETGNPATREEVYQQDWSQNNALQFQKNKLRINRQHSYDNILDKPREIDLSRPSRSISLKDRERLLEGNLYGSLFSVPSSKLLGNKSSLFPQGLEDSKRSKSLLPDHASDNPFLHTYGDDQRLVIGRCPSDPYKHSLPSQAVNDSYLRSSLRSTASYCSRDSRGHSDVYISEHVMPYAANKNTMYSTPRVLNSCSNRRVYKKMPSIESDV
Experimental: Whole cell patch-clamp recordings were performed under voltage-clamp mode using an Axopatch 200B or 1D patch-clamp amplifier (Molecular Devices). Whole-cell currents were recorded at a holding potential of −60 mV unless indicated elsewhere, and signals were filtered at 2 kHz, digitized at 10 kHz (Digidata 1322A). Recording pipettes (3-5 MΩ) were filled with intracellular solution containing (mM): CsCl 140, HEPES 10, Mg-ATP 4, QX-314 5, pH 7.20; osmolarity, 290-295 mOsm. BAPTA (10 mM) was added in the intracellular solution (unless otherwise specified). The coverslips were continuously superfused with extracellular solution containing (mM): NaCl 140, KCl 5.4, HEPES 10, CaCl2 1.3, glucose 20, pH 7.4; osmolarity, 305-315 mOsm. NMDA-induced currents were applied by NMDA through perfusion fast-step (Warner Instruments). With perfusion fast-step system, NMDA application was achieved by using a two-square barrel glass tubing and depending on the age of the cultured neurons, CNQX (10 μM), TTX (0.5 μM) or BIC (10 μM) were added in the extracellular solution to minimize the activation of ionotropic glutamate receptors and voltage-gated sodium channels, respectively. All experiments were performed at room temperature. Recordings from at least six HEK293 cells/neurons were performed for all active compounds. […]

T1 sequence (Q01097 27-1482, other chains not shown): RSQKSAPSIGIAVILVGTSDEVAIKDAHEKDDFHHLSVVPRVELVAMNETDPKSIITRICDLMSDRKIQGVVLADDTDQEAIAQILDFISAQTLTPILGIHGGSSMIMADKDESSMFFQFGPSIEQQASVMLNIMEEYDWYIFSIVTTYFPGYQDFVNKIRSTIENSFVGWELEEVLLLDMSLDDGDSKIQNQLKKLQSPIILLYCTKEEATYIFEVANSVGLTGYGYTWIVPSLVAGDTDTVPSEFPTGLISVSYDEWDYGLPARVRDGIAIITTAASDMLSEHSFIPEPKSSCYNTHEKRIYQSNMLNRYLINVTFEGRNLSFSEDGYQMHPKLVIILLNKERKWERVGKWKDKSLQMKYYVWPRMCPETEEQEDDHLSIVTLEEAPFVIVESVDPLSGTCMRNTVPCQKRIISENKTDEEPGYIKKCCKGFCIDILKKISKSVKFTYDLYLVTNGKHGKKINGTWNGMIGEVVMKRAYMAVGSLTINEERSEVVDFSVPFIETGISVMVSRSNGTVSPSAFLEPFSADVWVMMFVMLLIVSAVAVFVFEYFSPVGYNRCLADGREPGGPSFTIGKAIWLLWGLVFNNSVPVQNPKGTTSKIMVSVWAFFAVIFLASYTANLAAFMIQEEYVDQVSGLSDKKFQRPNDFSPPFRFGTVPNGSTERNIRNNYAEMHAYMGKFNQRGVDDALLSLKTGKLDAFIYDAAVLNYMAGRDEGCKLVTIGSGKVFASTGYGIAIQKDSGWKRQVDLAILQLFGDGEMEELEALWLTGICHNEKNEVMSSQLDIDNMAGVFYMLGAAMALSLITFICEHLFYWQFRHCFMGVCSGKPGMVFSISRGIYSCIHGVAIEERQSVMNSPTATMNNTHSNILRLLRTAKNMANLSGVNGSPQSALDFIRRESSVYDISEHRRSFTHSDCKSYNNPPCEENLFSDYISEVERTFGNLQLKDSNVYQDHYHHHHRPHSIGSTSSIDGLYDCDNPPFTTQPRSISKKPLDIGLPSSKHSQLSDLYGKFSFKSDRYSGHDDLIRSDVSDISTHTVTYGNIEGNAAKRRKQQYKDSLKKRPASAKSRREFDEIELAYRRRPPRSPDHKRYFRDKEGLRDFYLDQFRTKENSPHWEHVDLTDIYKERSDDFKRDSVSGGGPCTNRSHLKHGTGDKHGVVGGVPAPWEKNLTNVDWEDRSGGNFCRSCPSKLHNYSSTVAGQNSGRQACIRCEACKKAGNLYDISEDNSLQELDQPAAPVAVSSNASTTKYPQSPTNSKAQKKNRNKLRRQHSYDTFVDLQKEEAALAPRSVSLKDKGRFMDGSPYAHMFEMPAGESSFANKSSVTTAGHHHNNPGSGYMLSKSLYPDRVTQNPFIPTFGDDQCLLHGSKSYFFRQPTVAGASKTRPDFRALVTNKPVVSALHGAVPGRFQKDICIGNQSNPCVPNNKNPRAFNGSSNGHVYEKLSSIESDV

CCOc1cc(Cl)c(Cl)c(/C=N/NC(=O)c2ccccc2Br)c1O [Npam43, (E)-2-bromo-N′-(2,3-dichloro-5-ethoxy-6-hydroxybenzylidene)benzohydrazide]
Effect on GluN2B NMDARs [1]: no effects on the GluN2B NMDARs | Relative potentiation ([2]; Table 3): 99.3 ± 2.8% | Net Difference potentiation ([2]; normalized to wild-type): −52.5 ± 0.20%
